Data reported in patent US7357835B2, “Production of crystalline materials by using high intensity ultrasound” (Accentus PLC, priority 2002, dated 2008).

Legend:
[1] = Effect of ultrasound on crystallisation of aqueous D-xylose solution cooled at 0.2 K/min; assay type: physicochemical; settings: for temperature T at which solid first appeared: solution saturated at 50° C.
From the text: Referring to the drawing, a batch crystallisation irradiator 10 includes a stainless-steel vessel 12 of internal diameter 0.31 m and of wall thickness 2 mm. To the outside of the wall are attached sixty transducer modules 14 closely packed in a square array. Each transducer module 14 comprises a 50 W piezoelectric transducer 16 which resonates at 20 kHz, attached to a conically flared titanium coupling block 18 by which it is connected to the wall, the wider end of each block being of diameter 63 mm. The transducer modules define five circumferential rings each of twelve modules 14, the centres of the coupling blocks 18 being on a square pitch of 82 mm. The irradiator 10 also incorporates three signal generators 20 (only one is shown) each of which drives the transducers 16 in a pair of adjacent longitudinal rows and another such pair of rows one third of the circumference apart from the first pair.
Consequently the solution will become saturated and then supersaturated. When the temperature is about 10° C. below that at which saturation occurs, the transducers are energized briefly, each generator 20 being energized for 0.8 s successively. Each transducer irradiates 50 W over a circle of diameter 63 mm, that is an intensity of 1.6 W/cm^2. The ultrasonic energy is dissipated over the cylindrical volume of the vessel 12, which is about 31 litres, so if all the transducers 16 were energised simultaneously the power density would be about 100 W/litre. To avoid focusing, only one signal generator 20 is energized at any one time, so the energy deposition is about 33 W/litre. After 0.8 s, a different generator 20 is energized, and so on. After 2.4 s each transducer has been energized, and application of ultrasound is terminated. The contents of the vessel 12 are then inspected, to see if any crystals have formed. If there are no crystals this activation procedure is repeated.
When they are activated, the signal generators 20 generate signals at a frequency that varies between 19.5 and 20.5 kHz, the signals from different signal generators 20 varying independently of each other. The frequency of each signal generator 20 varies sinusoidally with time between those frequency limits, at a frequency of 10 Hz.
(§1) An experiment to investigate the effect of ultrasound on crystallisation has been performed, as follows. An aqueous solution of D-xylose containing 25 g D-xylose per 10 ml water was prepared, which would be saturated at 50° C. This was than cooled at a rate of 0.2 K/min to 20° C., and the resulting solid products were separated and isolated. […] If the transducers 14 were energized for a period of 2 minutes, starting at 46° C., then crystals appeared at 43° C. If the transducers 14 were energized continuously, starting at 50° C., then the resulting crystals were very small, and information on sizes was not obtained.

[2] = Saturation of aqueous D-xylose solution; assay type: physicochemical; settings: saturated at 50° C.
Protocol: as §1

Compound: O=C[C@H](O)[C@@H](O)[C@H](O)CO [D-xylose]
- crystal size at 10% cumulative percentile (by mass) ([1]; 2 min ultrasound): 43 microns
- crystal size at 50% cumulative percentile (by mass) ([1]; 2 min ultrasound): 106 microns
- crystal size at 90% cumulative percentile (by mass) ([1]; 2 min ultrasound): 211 microns
- temperature T at which solid first appeared ([1]; 2 min ultrasound starting at 46° C., cooled 0.2 K/min): 43 °C
- metastable zone width ([1]; absence of ultrasound): about 14 K
- metastable zone width ([1]; continuous application of ultrasound): about 4 K
- temperature T at which solid first appeared ([1]; continuous ultrasound starting at 50° C., cooled 0.2 K/min): 46 °C
- crystal size at 10% cumulative percentile (by mass) ([1]; no ultrasound): 27 microns
- crystal size at 50% cumulative percentile (by mass) ([1]; no ultrasound): 67 microns
- crystal size at 90% cumulative percentile (by mass) ([1]; no ultrasound): 149 microns
- temperature T at which solid first appeared ([1]; no ultrasound (control), cooled 0.2 K/min to 20° C.): 36 °C
- metastable zone width ([1]; short application of ultrasound): about 7 K
- concentration of saturated aqueous solution [2]: 25 g per 10 ml water
